This passage reports IC50 results from patent US20090298878A1, “OXIME COMPOUNDS AND THE USE THEREOF” (priority 2006, published 2009).

In test [1] the target is T1, N-type calcium channel (NTCC) (Homo sapiens, UniProt Q00975).
T1 construct: host or cells: IMR32 cells differentiated with dibutyryl cAMP and bromodeoxyuridine
Kind of test: FLIPR calcium mobilization assay for N-type calcium channel (differentiated IMR32 cells). The test is classed as cell-based. The following applies: calcium mobilization in vitro assay, N-type calcium channel blockers. Summed up: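 Human IMR32 cells differentiated 8 days (1 mM dibutyryl cAMP, 2.5 μM BrdU), pre-stimulated 1 h with 90 mM KCl plus compound (~846 pM–17 μM) and 5 μM nitrendipine, Fluo-4 loaded. FLIPR read basal fluorescence 315 s, then 90 mM KCl agonist added and fluorescence recorded 45 s; non-linear regression.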
On the technique in general: A change in cytosolic calcium serves as a functional read-out for many receptors and channels.

The target in test [2] is T2, L-type calcium channel (LTCC) subunits (α1c, α2δ, and β1) (Rattus norvegicus, UniProt P22002).
T2 construct: expressed in transfected cells; pcDNA6.2DEST for α1c, pcDNA3.2DEST for β1, pcDNA3.1-Zeo for α2δ
The test is described as follows: FLIPR calcium mobilization assay for L-type calcium channel (HEK293 cells expressing recombinant rat LTCC subunits). It counts as cell-based. The following applies: calcium mobilization in vitro assay, L-type calcium channel blockers. Here is the method: Recombinant human embryonal kidney cells (HEK293, ATCC) stably transfected with either N-type calcium channel (NTCC) subunits (α1b, α2δ, and β3) or L-type calcium channel (LTCC) subunits (α1c, α2δ, and β1) were routinely cultured in growth medium consisting of Dulbecco's Modified Eagles Medium containing 10% FBS, 100 U/mL penicillin, 100 μg/mL streptomycin, 4 mM L-glutamine, 500 μg/mL geneticin (G418), 20 μg/mL Blasticidin S (InVivogen, San Diego, Calif.) and 500 μg/mL zeocin (InVivogen).
FLIPR Calcium Mobilization Assay for L-type Calcium Channel. One day prior to performing this assay, HEK293 cells stably expressing recombinant rat L-type calcium channel (LTCC) subunits (α1c, α2δ, and β1) were trypsinized, then seeded on poly-D-lysine-coated 96-well clear-bottom black plates (Becton Dickinson, Franklin Lakes, N.J.) at 75,000 cells/well. On the day of the assay, the plates were washed with LTCC wash buffer (127 mM NaCl, 2 mM MgCl2, 700 μM NaH2PO4, […], 5 mM NaHCO3, 8 mM HEPES, 10 mM glucose, pH 7.4), then loaded with 0.1 mL of LTCC wash buffer containing Fluo-4 (3 μM final concentration, Molecular Probes, Eugene, Oreg.). After 1 hour, the cells were washed with 0.1 mL LTCC wash buffer and resuspended in 0.05 mL LTCC assay buffer (same composition as LTCC wash buffer). Plates were then transferred to a FLIPR^96 for assay. The FLIPR measured basal Fluo-4 fluorescence for 15 seconds, then added 0.05 mL of each compound tested diluted in LTCC assay buffer at final concentrations ranging from about 846 pM to about 17 μM. Fluo-4 fluorescence was then measured for 5 minutes. 0.1 mL KCl agonist dissolved in LTCC assay buffer was then added to the cells to produce a final concentration of 90 mM KCl, and fluorescence was measured for another 45 seconds. Data were collected over the entire time course and analyzed using Excel, Graph Pad Prism, or an in-house regression analysis software.
Cloning of N- and L-type calcium channel subunit open reading frame cDNAs. Five cDNAs encoding subunits of the rat N- or L-type calcium channels were cloned by PCR amplification in order to reconstitute functional channels in a heterologous system. These were the alpha1b (α1b), beta1 (β1), beta3 (β3), alpha2delta (α2δ), and alpha1c (α1c) subunit cDNAs. The alpha1b subunit cDNA has been described by Dubel et al. in Proc. Natl. Acad. Sci. U.S.A 89: 5058-5062 (1992). The beta1 subunit cDNA has been described by Pragnell et al. in FEBS Lett. 291: 253-258 (1991). The beta3 subunit cDNA has been described by Castellano et al. in J. Biol. Chem. 268: 12359-12366 (1993). The alpha2delta subunit cDNA has been described by Kim et al. in Proc. Natl. Acad. Sci. U.S.A. 89: 3251-3255 (1992). The alpha1c subunit cDNA has been described by Koch et al. in J. Biol. Chem. 265: 17786-17791 (1990).
The 6.5 kb cDNA encoding the L-type calcium channel α1c subunit was cloned by PCR amplification from rat heart cDNA using primers 11 (SEQ ID NO: 11, TABLE 1) and 12 (SEQ ID NO:12, TABLE 1). The PCR fragment was subcloned and fully sequenced on both strands to confirm its identity. A clone matching consensus reference sequence M59786 and rat genomic DNA sequences was recombined into the mammalian expression vector pcDNA6.2DEST. Sequences around the recombinogenic region were sequenced to confirm accurate recombination into the expression vector.
L-type Recombinant Cell Line Development. L-type calcium channel expressing HEK-293 cells were created in two stages. Stage 1 was created as follows. The rat α1c, and β1 cDNA expression constructs (2.5 μg each) were co-transfected into human embryonic kidney (HEK-293) cells by Lipofectamine Plus reagent (Invitrogen), as per manufacturer's instructions. 24 hours later, cells were split in limiting dilution into multiple 96-well plates in selection media containing 20 μg/mL blasticidin and 500 μg/mL geneticin, and incubated for 3 weeks at 37° C., 5% CO2, 95% humidity. […]

The structures appear in SMILES notation. Structures can show the parent of a compound that is named as a salt.

T2 sequence (P22002 whole entry): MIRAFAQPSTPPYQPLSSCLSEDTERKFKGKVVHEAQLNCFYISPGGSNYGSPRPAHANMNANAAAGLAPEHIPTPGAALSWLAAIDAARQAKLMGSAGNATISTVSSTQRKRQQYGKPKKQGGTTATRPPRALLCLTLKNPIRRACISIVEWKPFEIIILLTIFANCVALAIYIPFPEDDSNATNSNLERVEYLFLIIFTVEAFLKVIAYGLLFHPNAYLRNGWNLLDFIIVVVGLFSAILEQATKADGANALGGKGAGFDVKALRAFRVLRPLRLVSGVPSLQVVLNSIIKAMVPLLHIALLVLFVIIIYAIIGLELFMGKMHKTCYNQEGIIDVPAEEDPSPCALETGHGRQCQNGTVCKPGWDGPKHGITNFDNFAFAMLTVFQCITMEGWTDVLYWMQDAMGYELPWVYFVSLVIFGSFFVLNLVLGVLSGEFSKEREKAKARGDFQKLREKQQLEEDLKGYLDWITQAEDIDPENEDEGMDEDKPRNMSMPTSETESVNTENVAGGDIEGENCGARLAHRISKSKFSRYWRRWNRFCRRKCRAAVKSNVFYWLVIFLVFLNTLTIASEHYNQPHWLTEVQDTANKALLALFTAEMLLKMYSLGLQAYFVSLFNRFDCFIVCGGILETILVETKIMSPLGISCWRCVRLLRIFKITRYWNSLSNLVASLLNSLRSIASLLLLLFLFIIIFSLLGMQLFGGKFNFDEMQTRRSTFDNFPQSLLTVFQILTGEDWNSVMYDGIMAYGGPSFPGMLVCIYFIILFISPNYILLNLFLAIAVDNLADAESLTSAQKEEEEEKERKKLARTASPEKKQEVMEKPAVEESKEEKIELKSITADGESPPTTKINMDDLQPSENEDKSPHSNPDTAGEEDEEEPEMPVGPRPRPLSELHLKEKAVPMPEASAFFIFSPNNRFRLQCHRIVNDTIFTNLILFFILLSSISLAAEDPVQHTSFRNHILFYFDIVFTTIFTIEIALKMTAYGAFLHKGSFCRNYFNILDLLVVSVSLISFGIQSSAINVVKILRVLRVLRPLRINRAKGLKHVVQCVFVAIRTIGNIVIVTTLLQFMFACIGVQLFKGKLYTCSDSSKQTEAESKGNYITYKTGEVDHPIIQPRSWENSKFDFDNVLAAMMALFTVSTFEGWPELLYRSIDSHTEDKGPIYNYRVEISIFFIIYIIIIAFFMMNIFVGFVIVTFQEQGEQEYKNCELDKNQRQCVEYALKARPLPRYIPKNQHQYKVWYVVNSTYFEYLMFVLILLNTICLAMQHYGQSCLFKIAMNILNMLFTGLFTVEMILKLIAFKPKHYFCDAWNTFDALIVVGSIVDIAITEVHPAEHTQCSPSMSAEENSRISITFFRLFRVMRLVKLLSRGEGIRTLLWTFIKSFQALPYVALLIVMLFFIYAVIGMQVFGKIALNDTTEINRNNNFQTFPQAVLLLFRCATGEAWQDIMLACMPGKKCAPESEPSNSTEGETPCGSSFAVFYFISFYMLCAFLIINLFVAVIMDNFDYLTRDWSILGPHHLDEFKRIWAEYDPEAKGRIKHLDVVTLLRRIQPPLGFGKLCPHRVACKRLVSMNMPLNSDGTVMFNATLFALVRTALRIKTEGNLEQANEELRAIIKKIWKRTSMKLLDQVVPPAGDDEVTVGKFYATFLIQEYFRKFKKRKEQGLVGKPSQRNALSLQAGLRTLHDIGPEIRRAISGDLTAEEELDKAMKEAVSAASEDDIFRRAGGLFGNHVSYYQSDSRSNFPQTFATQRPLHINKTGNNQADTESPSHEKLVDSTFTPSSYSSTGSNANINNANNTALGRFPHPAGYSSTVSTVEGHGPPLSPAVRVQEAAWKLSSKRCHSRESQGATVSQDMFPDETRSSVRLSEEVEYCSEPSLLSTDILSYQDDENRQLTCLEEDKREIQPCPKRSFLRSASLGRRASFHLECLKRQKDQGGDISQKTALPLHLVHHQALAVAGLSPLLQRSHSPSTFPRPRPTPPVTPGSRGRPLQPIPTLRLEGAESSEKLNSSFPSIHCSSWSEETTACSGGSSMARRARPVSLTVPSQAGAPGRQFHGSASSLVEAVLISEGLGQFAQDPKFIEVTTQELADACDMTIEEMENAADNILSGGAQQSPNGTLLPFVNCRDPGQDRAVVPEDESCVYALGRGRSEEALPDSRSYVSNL
T1 sequence (Q00975 whole entry): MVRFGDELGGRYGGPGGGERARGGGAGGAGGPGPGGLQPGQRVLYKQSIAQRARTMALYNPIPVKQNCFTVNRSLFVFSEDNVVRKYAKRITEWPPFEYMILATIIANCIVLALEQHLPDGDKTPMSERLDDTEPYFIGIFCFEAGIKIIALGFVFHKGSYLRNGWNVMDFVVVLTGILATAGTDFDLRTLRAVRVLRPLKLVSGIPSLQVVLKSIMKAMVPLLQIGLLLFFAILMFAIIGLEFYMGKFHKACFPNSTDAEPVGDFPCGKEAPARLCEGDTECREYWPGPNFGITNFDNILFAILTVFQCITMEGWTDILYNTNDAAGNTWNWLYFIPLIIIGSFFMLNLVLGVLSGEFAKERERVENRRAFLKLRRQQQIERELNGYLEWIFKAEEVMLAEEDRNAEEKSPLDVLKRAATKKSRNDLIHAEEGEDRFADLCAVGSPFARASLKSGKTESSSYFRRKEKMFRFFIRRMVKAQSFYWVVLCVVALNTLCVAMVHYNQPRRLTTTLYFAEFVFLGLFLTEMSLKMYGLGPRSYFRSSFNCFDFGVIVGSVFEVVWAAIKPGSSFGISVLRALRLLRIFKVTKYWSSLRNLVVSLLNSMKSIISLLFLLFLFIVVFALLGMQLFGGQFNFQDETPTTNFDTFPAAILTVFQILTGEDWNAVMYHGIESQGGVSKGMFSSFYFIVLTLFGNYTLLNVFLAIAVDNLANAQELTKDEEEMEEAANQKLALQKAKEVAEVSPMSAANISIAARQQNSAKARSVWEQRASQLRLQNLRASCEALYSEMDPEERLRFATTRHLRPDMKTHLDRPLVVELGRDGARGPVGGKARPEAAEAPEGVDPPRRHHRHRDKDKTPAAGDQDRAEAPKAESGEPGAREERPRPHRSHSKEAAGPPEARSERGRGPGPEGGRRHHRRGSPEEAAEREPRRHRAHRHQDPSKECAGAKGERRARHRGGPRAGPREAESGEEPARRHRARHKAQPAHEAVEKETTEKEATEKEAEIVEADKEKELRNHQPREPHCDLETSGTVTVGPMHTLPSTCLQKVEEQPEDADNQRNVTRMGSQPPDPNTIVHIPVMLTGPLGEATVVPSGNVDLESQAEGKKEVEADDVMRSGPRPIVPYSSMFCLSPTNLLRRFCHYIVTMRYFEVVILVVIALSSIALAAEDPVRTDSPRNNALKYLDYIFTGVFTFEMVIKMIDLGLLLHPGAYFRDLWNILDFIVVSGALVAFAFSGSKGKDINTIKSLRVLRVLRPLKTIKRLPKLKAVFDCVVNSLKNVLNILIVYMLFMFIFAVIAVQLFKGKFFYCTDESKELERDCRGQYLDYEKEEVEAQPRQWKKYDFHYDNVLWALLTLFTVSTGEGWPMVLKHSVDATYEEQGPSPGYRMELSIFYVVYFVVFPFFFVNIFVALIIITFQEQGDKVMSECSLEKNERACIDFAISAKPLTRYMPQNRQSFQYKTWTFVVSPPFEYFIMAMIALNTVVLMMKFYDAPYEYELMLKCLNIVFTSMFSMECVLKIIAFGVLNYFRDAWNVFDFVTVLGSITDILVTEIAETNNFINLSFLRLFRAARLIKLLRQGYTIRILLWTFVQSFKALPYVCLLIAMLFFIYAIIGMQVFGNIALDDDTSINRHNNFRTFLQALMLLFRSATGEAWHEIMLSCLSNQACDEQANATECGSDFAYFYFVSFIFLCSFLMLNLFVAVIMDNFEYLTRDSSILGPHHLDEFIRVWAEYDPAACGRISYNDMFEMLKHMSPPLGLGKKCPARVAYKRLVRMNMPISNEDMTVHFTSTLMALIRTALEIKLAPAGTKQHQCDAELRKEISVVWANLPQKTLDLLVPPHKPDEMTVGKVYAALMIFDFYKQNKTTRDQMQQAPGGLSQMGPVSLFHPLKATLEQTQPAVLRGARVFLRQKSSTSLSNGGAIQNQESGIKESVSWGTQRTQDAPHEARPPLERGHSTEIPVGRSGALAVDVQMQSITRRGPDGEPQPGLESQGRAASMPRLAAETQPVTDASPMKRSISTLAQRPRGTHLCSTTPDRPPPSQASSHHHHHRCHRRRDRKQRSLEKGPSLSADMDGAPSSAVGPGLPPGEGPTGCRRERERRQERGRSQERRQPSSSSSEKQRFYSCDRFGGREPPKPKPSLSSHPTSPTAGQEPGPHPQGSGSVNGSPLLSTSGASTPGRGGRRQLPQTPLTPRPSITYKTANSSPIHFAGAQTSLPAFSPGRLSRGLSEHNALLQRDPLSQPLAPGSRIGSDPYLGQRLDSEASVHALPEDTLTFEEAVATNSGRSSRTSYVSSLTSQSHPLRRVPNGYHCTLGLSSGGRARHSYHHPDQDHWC

Take `O=S(=O)(c1cccc(C(F)(F)F)c1)N1CCC(=NOCC2CCCCC2)CC1` [Example 277, 1-(3-(Trifluoromethyl)phenylsulfonyl)piperidin-4-one O-cyclohexylmethyl oxime]: the IC50 – broadly, the concentration at which inhibition is half-maximal – in test [1] was 610 nM; in test [2], > 20000 nM.
As for `Fc1ccc(C(CCCN2CCC(=NOCc3cccnc3)CC2)c2ccc(F)cc2)cc1` [Example 16, 1-[4,4-Bis-(4-fluorophenyl)butyl]piperidin-4-one O-pyridin-3-ylmethyloxime dioxalate], the IC50 in test [1] came to 260 nM; in test [2], 6600 nM.
The corresponding values for `CCCCc1ccc(S(=O)(=O)N2CCC(=NOCc3cccc(C(F)(F)F)c3)CC2)cc1` [Example 50, 1-(4-Butyl-benzenesulfonyl)piperidin-4-one O-(3-trifluoromethylbenzyl)oxime] are 430 nM and > 20000 nM.
The corresponding values for `CN[C@@H](CC(C)C)C(=O)N1CCC(=NOCc2ccc(Cl)cc2)CC1` [Example 4, 1-((S)-4-Methyl-2-methylaminopentanoyl)piperidin-4-one O-(4-chlorobenzyl)oxime hydrochloride] are 860 nM and 15200 nM.
As to `O=S(=O)(c1ccc(OC(F)(F)F)cc1)N1CCC(=NOCc2nc3cc(Cl)cnc3[nH]2)CC1` [Example 308, 1-(4-(Trifluoromethoxy)phenylsulfonyl)piperidin-4-one O-(6-chloro-3H-imidazo[4,5-b]pyridin-2-yl)methyl oxime], the IC50 in test [1] was 360 nM; in test [2], > 20000 nM.
With `O=C(CCC(c1ccc(F)cc1)c1ccc(F)cc1)N1CCC(=NOCc2ccc(C(F)(F)F)cc2)CC1` [Example 30, 1-[4,4-Bis-(4-fluorophenyl)butyryl]piperidin-4-one O-(4-trifluoromethylbenzyl)oxime], the IC50 in test [1] is 330 nM; in test [2], > 20000 nM.
The corresponding values for `CC(C)C[C@H](N)C(=O)N1CCC(=NOCc2cccc(C(F)(F)F)c2)CC1` [Example 8, 1-((S)-2-Amino-4-methylpentanoyl)piperidin-4-one O-(3-trifluoromethylbenzyl)oxime hydrochloride] are 690 nM and 9600 nM.
The corresponding values for `CCCCCC(C)ON=C1CCN(S(=O)(=O)c2cccc(C(F)(F)F)c2)CC1` (stereo not shown) [Example 369, 1-(3-(Trifluoromethyl)phenylsulfonyl)piperidin-4-one O-heptan-2-yl oxime] are 80 nM and > 20000 nM.
`CC(C)C[C@H](N)CC(=O)N1CCC(=NOCc2cccc(C(F)(F)F)c2)CC1` [Example 24, 1-((S)-3-Amino-5-methylhexanoyl)piperidin-4-one O-(3-trifluoromethylbenzyl)oxime oxalate]: the IC50 in test [1] was determined as 990 nM; in test [2], 7200 nM.
The corresponding values for `CCCCc1ccc(S(=O)(=O)N2CCC(=NOCc3cccc(C#N)c3)CC2)cc1` [Example 77, 3-[1-(4-Butylbenzenesulfonyl)piperidin-4-ylideneaminooxymethyl]benzonitrile] are 220 nM and > 20000 nM.
Take `O=c1ccc(CON=C2CCN(S(=O)(=O)c3ccc(OC(F)(F)F)cc3)CC2)cn1Cc1ccc(F)cc1` [Example 295, 1-(4-Fluorobenzyl)-5-((1-(4-(trifluoromethoxy)phenylsulfonyl)piperidin-4-ylideneaminooxy)methyl)pyridin-2(1H)-one]: the concentration for half-maximal inhibition (IC50) was 160 nM in test [1] and > 20000 nM in test [2].
The corresponding values for `Fc1ccc(C(CCCN2CCC(=NOCc3cccc(C(F)(F)F)c3)CC2)c2ccc(F)cc2)cc1` [Example 12, 1-[4,4-Bis-(4-fluorophenyl)butyl]piperidin-4-one O-(3-trifluoromethylbenzyl)oxime oxalate] are 820 nM and > 20000 nM.
The corresponding values for `O=C(CCC(c1ccc(F)cc1)c1ccc(F)cc1)N1CCC(=NOCc2ccncc2)CC1` [Example 19, 1-[4,4-Bis-(4-fluorophenyl)butyryl]piperidin-4-one O-pyridin-4-ylmethyloxime oxalate] are 760 nM and 4900 nM.
The corresponding values for `N#Cc1cc(CON=C2CCN(C(c3ccc(F)cc3)c3ccc(F)cc3)CC2)ccc1F` [Example 182, 5-((1-(Bis(4-fluorophenyl)methyl)piperidin-4-ylideneaminooxy)methyl)-2-fluorobenzonitrile hydrochloride] are 690 nM and > 20000 nM.
